Columns and labels:
Mus musculus [1] = assay: The number of L1210 leukemia mice survived after 60 days with compound in aqueous solution injected by a dose of 20 mg/kg intraperitoneally; 6/10; format: functional; settings: route intraperitoneal
Mus musculus [2] = assay: The number of L1210 leukemia mice survived after 30 days with compound injected by a dose of 1.25 mg/kg intraperitoneally; 0/8; format: functional; settings: route intraperitoneal
[3] = Ratio of mice died to that of mice treated with 20 mg/kg of compound in olive oil intraperitoneally with L1210 leukemia tumor; 0/15; format: functional; settings: route intraperitoneal
[4] = Mortality range of the mice with B16 Melanocarcinoma treated with 20 mg/kg of dose intraperitoneally with no of mice survived/no of mice treated; 0/10; format: functional; settings: route intraperitoneal
Mus musculus [5] = assay: Anti tumor activity l when treated to mice with B16 Melanocarcinoma with 10 mg/kg dose of compound intraperitoneally was expressed as percent of treated to control (T/C %); format: functional; settings: route intraperitoneal
Mus musculus [6] = assay: Anti tumor activity l when treated to mice with B16 Melanocarcinoma with 5 mg/kg dose of compound intraperitoneally was expressed as percent of treated to control (T/C %); format: functional; settings: route intraperitoneal
Mus musculus [7] = assay: The number of B16 melanocarcinoma mice survived after 30 days with compound in olive oil injected by a dose of 20 mg/kg intraperitoneally; 13/20; format: functional; settings: route intraperitoneal
Mus musculus [8] = assay: The number of L1210 Leukemia mice survived after 60 days with compound in olive oil injected by a dose of 20 mg/kg intraperitoneally; 7/15; format: functional; settings: route intraperitoneal
Mus musculus [9] = assay: The number of L1210 leukemia mice survived after 30 days with compound injected by a dose of 5 mg/kg intraperitoneally; 8/8; format: functional; settings: route intraperitoneal
Mus musculus [10] = assay: The number of B16 Melanocarcinoma mice survived after 60 days with compound injected by a dose of 20 mg/kg intraperitoneally; 9/10; format: functional; settings: route intraperitoneal
Mus musculus [11] = assay: The number of B16 Melanocarcinoma mice survived after 30 days with compound injected by a dose of 5 mg/kg intraperitoneally; 9/10; format: functional; settings: route intraperitoneal
Mus musculus [12] = assay: The number of L1210 leukemia mice survived after 60 days with compound injected by a dose of 10 mg/kg intraperitoneally; 9/10; format: functional; settings: route intraperitoneal
Mus musculus [13] = assay: The number of L1210 leukemia mice survived after 60 days with compound injected by a dose of 5 mg/kg intraperitoneally; 8/8; format: functional; settings: route intraperitoneal
[14] = Mortality range of the mice with L1210 leukemia treated with 2.5 mg/kg of dose intra peritoneally with no of mice survived/no of mice treated; 0/10; format: functional
[15] = Mortality range of the mice with L1210 leukemia treated with 2.5 mg/kg of dose intraperitoneally with no of mice survived/no of mice treated; 0/8; format: functional; settings: route intraperitoneal
Mus musculus [16] = assay: Anti tumor activity in olive oil when treated to mice with L1210 leukemia with 20 mg/kg dose of compound intraperitoneally was expressed as percent of treated to control (T/C %); format: functional; settings: route intraperitoneal
[17] = Mortality range of the mice with B16 Melanocarcinoma treated with 30 mg/kg of dose intraperitoneally with no of mice survived/no of mice treated; 0/10; format: functional; settings: route intraperitoneal
Mus musculus [18] = assay: Anti tumor activity l when treated to mice with L1210 leukemia with 5 mg/kg dose of compound intraperitoneally was expressed as percent of treated to control (T/C %); format: functional; settings: route intraperitoneal
Mus musculus [19] = assay: The number of B16 Melanocarcinoma mice survived after 30 days with compound injected by a dose of 10 mg/kg intraperitoneally; 10/10; format: functional; settings: route intraperitoneal
Mus musculus [20] = assay: The number of B16 Melanocarcinoma mice survived after 60 days with compound injected by a dose of 10 mg/kg intraperitoneally; 3/10; format: functional; settings: route intraperitoneal
Mus musculus [21] = assay: The number of L1210 leukemia mice survived after 30 days with compound injected by a dose of 20 mg/kg intraperitoneally; 10/10; format: functional; settings: route intraperitoneal
Mus musculus [22] = assay: The number of L1210 leukemia mice survived after 30 days with compound in aqueous solution injected by a dose of 20 mg/kg intraperitoneally; 6/10; format: functional; settings: route intraperitoneal
Mus musculus [23] = assay: Median survival time of the non surviving mice; treated with 5 mg/kg of compound to mice with B16 Melanocarcinoma; 30-47; format: functional
Mus musculus [24] = assay: Median survival time of the non surviving mice; treated with 1.25 mg/kg of compound to mice with L1210 leukemia; 16-19; format: functional
Mus musculus [25] = organism: Mus musculus; assay: (§1) Lethal dose was evaluated in male mouse; format: toxicity, organism-based; settings: in vivo
[26] = as §1; format: toxicity, organism-based; settings: in vivo
Mus musculus [27] = assay: The number of L1210 leukemia mice survived after 30 days with compound injected by a dose of 10 mg/kg intraperitoneally; 8/8; format: functional; settings: route intraperitoneal
[28] = Mortality range of the mice with L1210 leukemia treated with 30 mg/kg of dose intraperitoneally with no of mice survived/no of mice treated; 1/10; format: functional; settings: route intraperitoneal
Mus musculus [29] = organism: Mus musculus; assay: (§2) Lethal dose was evaluated in female mouse; format: toxicity, organism-based; settings: in vivo
[30] = as §2; format: toxicity, organism-based; settings: in vivo
Mus musculus [31] = assay: Anti tumor activity l when treated to mice with L1210 leukemia with 1.25 mg/kg dose of compound intraperitoneally was expressed as percent of treated to control (T/C %); format: functional; settings: route intraperitoneal
Mus musculus [32] = assay: The number of L1210 leukemia mice survived after 30 days with compound injected by a dose of 10 mg/kg intraperitoneally; 9/10; format: functional; settings: route intraperitoneal
Mus musculus [33] = assay: The number of B16 Melanocarcinoma mice survived after 60 days with compound injected by a dose of 5 mg/kg intraperitoneally; 1/10; format: functional; settings: route intraperitoneal
[34] = Mortality range of the mice with L1210 leukemia treated with 10 mg/kg of dose intraperitoneally with no of mice survived/no of mice treated; 0/10; format: functional; settings: route intraperitoneal
[35] = Mortality range of the mice with L1210 leukemia treated with 10 mg/kg of dose intraperitoneally with no of mice survived/no of mice treated; 0/8; format: functional; settings: route intraperitoneal
Mus musculus [36] = assay: The number of B16 Melanocarcinoma mice survived after 30 days with compound injected by a dose of 30 mg/kg intraperitoneally; 10/10; format: functional; settings: route intraperitoneal
Mus musculus [37] = assay: The number of L1210 leukemia mice survived after 60 days with compound injected by a dose of 20 mg/kg intraperitoneally; 10/10; format: functional; settings: route intraperitoneal
Mus musculus [38] = assay: The number of L1210 Leukemia mice survived after 30 days with compound in olive oil injected by a dose of 20 mg/kg intraperitoneally; 15/15; format: functional; settings: route intraperitoneal
Mus musculus [39] = assay: The number of L1210 leukemia mice survived after 30 days with compound injected by a dose of 2.5 mg/kg intraperitoneally; 8/8; format: functional; settings: route intraperitoneal
Mus musculus [40] = assay: Median survival time of the non surviving mice; treated with 10 mg/kg of compound to mice with B16 Melanocarcinoma; 34-47; format: functional
Mus musculus [41] = assay: The number of L1210 leukemia mice survived after 60 days with compound injected by a dose of 2.5 mg/kg intraperitoneally; 0/10; format: functional; settings: route intraperitoneal
Mus musculus [42] = assay: Median survival time of the non surviving mice; treated with 2.5 mg/kg of compound to mice with L1210 leukemia; 40-54; format: functional
Mus musculus [43] = assay: The number of B16 Melanocarcinoma mice survived after 60 days with compound injected by a dose of 30 mg/kg intraperitoneally; 9/10; format: functional; settings: route intraperitoneal
[44] = Ratio of mice died to that of mice treated with 20 mg/kg of compound in olive oil intraperitoneally with Lewis lung; 0/20; format: functional; settings: route intraperitoneal

CO[C@@H]1C[C@@H](NC(=O)N(CCCl)N=O)[C@H](O)[C@@H](CO)O1 [ECOMUSTINE]
Survivals (Mus musculus [1]): 6
Survival after 30 days (Mus musculus [2]): 0
Ratio [3]: 0
Ratio [4]: 0
T/C (Mus musculus [5]): 233%
T/C (Mus musculus [6]): 203%
Survivals (Mus musculus [7]): 13
Survivals (Mus musculus [8]): 7
Survivals (Mus musculus [9]): 8
Survivals (Mus musculus [10]): 9
Survivals (Mus musculus [11]): 9
Survivals (Mus musculus [12]): 9
Survivals (Mus musculus [13]): 8
Ratio [14]: 0
Ratio [15]: 0
T/C (Mus musculus [16]): 644%
Ratio [17]: 0
T/C (Mus musculus [18]): 164%
Survivals (Mus musculus [19]): 10
Survivals (Mus musculus [20]): 3
Survivals (Mus musculus [21]): 10
Survival after 30 days (Mus musculus [22]): 6
Median survival time (Mus musculus [23]): 40
Median survival time (Mus musculus [24]): 16.9
LD10 (Mus musculus [25]): 31.2 mg/kg
LD90 (Mus musculus [25]): 60 mg/kg
LD50 [26]: 43.3 mg/kg
Survivals (Mus musculus [27]): 8
Ratio [28]: 1
LD10 (Mus musculus [29]): 29.4 mg/kg
LD90 (Mus musculus [29]): 56.4 mg/kg
LD50 [30]: 40.7 mg/kg
T/C (Mus musculus [31]): 188%
Survivals (Mus musculus [32]): 9
Survivals (Mus musculus [33]): 1
Ratio [34]: 0
Ratio [35]: 0
Survivals (Mus musculus [36]): 10
Survivals (Mus musculus [37]): 10
Survivals (Mus musculus [38]): 15
Survivals (Mus musculus [39]): 8
Median survival time (Mus musculus [40]): 44
Survivals (Mus musculus [41]): 0
Median survival time (Mus musculus [42]): 43.2
Survivals (Mus musculus [43]): 9
Ratio [44]: 0

From ChEMBL document CHEMBL1124317, “Rationale for the synthesis and preliminary biological evaluation of highly active new antitumor nitrosoureido sugars” (J Med Chem, 1989)
